SMILES strings stand for the structures.

For one series, the system named is pica feeding response. Description: In Vivo Assay 2: Rat Pica Model of Emesis. The conditions noted are these: oral, rats, dosed orally, upper end given as greater than or equal to about 40 mg/kg. From the text: However, a side effect of some PDE4 inhibitors in many species is emesis. Because many rat models of inflammation are well characterized, they have been used in procedures (see e.g. In Vivo Assay 1 above) to show beneficial anti-inflammatory effects of PDE 4 inhibitors. However rats have no emetic response (they have no vomit reflex), so that the relationship between beneficial anti-inflammatory effects of PDE 4 inhibitors and emesis is difficult to study directly in rats.
Pica feeding is a behavioural response to illness in rats wherein rats eat non-nutritive substances such as earth or in particular clay (e.g. kaolin) which may help to absorb toxins. Pica feeding can be induced by motion and chemicals (especially chemicals which are emetic in humans), and can be inhibited pharmacologically with drugs that inhibit emesis in humans. The Rat Pica Model, In Vivo Assay 2, can determine the level of pica response of rats to PDE 4 inhibition at pharmacologically relevant doses in parallel to in vivo anti-inflammatory Assays in (a separate set of) rats (e.g. In Vivo Assay 1 above). […] The Rat TI can for example be calculated as the ratio of a) the potentially-emetic Pica Response ED50 dose from Assay 2 to b) the rat anti-inflammatory ED50 dose (e.g. measured by rat neutrophilia-inhibition in eg In Vivo Assay 1), with larger TI ratios possibly indicating lower emesis at many anti-inflammatory doses. […]
At the end of 72 hours the rats are placed in clean cages and the food cups weighed. […] The food and clay cups and cage debris are weighed the following day and the total clay and food consumed that night by each individual animal is calculated.
A dose response is calculated by first converting the data into quantal response, where animals are either positive or negative for the pica response. A rat is “pica positive” if it consumes greater than or equal to 0.3 grams of clay […] using logistic regression performed by the Statistica software statistical package. A Pica Response ED50 value in mg per kg of body weight can then be calculated.

Series [1] relates to LPS-induced pulmonary neutrophilia in rats. The series can be described thus: In Vivo Assay 1: LPS-induced pulmonary neutrophilia in rats, orally administered PDE4 inhibitors. The conditions noted are these: Rattus norvegicus, po, aerosolized LPS 30 min after dosing, BAL 4 hours post LPS, read-out: neutrophilia-inhibition ED50. From the text: The purpose of this neutrophilia model is to study the potentially anti-inflammatory effects in vivo of orally administered PDE4 inhibitors on neutrophilia induced by inhalation of aerosolized lipopolysaccharide (LPS), modelling the neutrophil inflammatory component(s) of COPD. See the literature section below for scientific background.
Male Lewis rats (Charles River, Raleigh, N.C., USA) weighing approximately 300-400 grams are pretreated with either (a) test compound suspended in 0.5% methylcellulose (obtainable from Sigma-Aldrich, St Louis, Mo., USA) in water or (b) vehicle only, delivered orally in a dose volume of 10 ml/kg. Generally, dose response curves are generated using the following doses of PDE4 inhibitors: 10.0, 2.0, 0.4, 0.08 and 0.016 mg/kg. Thirty minutes following pretreatment, the rats are exposed to aerosolized LPS (Serotype E. Coli 026:B6 prepared by trichloroacetic acid extraction, obtainable from Sigma-Aldrich, St Louis, Mo., USA), generated from a nebulizer containing a 100 μg/ml LPS solution. Rats are exposed to the LPS aerosol at a rate of 4 L/min for 20 minutes. LPS exposure is carried out in a closed chamber with internal dimensions of 45 cm length×24 cm width×20 cm height. The nebulizer and exposure chamber are contained in a certified fume hood. At 4 hours-post LPS exposure the rats are euthanized by overdose with pentobarbital at 90 mg/kg, administered intraperitoneally. Bronchoalveolar lavage (BAL) is preformed through a 14 gauge blunt needle into the exposed trachea. Five, 5 ml washes are performed to collect a total of 25 ml of BAL fluid. […] Percent neutrophil inhibition at each dose (cf. vehicle) is calculated and a variable slope, sigmoidal dose-response curve is generated, usually using Prism Graph-Pad. […]
Alternative method and results: In an alternative embodiment of the procedure, single oral doses of 10 mg/kg or 1.0 mg/kg of the PDE4 inhibitor (or vehicle) is administered to the rats, and percent neutrophil inhibition is calculated and reported for that specific dose.

`CCn1ncc2c(NC3CCOCC3)c(C(=O)Nc3ccc(F)cc3)cnc21` [Example 22, 1-Ethyl-N-(4-fluorophenyl)-4-(tetrahydro-2H-pyran-4-ylamino)-1H-pryazolo[3,4-b]pyridine-5-carboxamide]: the ED50 in the series with pica feeding response lay within 4.8 to 40 mg/kg; in series [1] it was 0.5 to 2 mg/kg.
The matching figures for `CCNC(=O)c1cnc2c(cnn2CC)c1NC1CCOCC1` [Example 83, 1-Ethyl-N-ethyl-4-(tetrahydro-2H-pyran-4-ylamino)-1H-pyrazolo[3,4-b]pyridine-5-carboxamide]: 4.8 to 40 mg/kg and 0.5 to 2 mg/kg.
Take `CCn1ncc2c(NC3CCOCC3)c(C(=O)NCc3ccc(C(F)(F)F)cc3)cnc21` [Example 155, 1-Ethyl-4-(tetrahydro-2H-pyran-4-ylamino)-N-[4-(trifluoromethyl)benzyl]-1H-pyrazolo[3,4-b]pyridine-5-carboxamide]: the ED50 with pica feeding response lay in the range of 4.8 to 40 mg/kg; in series [1], 0.5 to 2 mg/kg.

The values above are taken from patent US20060089375A1, “Pyrazolo[3,4-b] pyridine compounds, and their use as phosphodiesterase inhibitors” (priority 2002, published 2006).
